From patent US20240041991A1, “STABLE LIQUID DISPERSINB COMPOSITIONS” (KANE BIOTECH INC., priority 2020, published 2024)
Like-named read-outs stand apart in the source and are kept apart here. Marks after values point to notes of the source that are not given here.

Test system: DispersinB
Type: biochemical, Aggregatibacter actinomycetemcomitans
Settings: for % enzymatic activity of DispersinB (Mean): polyol % as in label; for temperature stabilizing effect on DispersinB at elevated temperatures: 42° C., 52° C., and 62° C.
Protocol: Samples from each formula was incubated at 3 different temperatures (42° C., 52° C. and 62° C.) for 3 hours. Following a 3 hour incubation, the samples were brought to room temperature for enzymatic activity assay.
Two-tailed paired T-test was performed by to compare each polyol containing treatment with the treatment devoid of polyol. Treatment with probability values (p) less than 5% (0.05) was considered significant.

**Q.** How did the “% enzymatic activity of DispersinB (Mean)” value (“% enzymatic activity” for short) (4° C., freshly made control without polyol = 100%, listed as 0.25% Inositol) turn out when `O[C@H]1[C@H](O)[C@@H](O)[C@H](O)[C@@H](O)[C@H]1O` [inositol, Inositol] was run?
**A.** The value was 104%.

**Q.** And the “% enzymatic activity” value (4° C., freshly made control without polyol = 100%, listed as 0.5% Inositol)?
**A.** Its value is 101%.

**Q.** What about the “% enzymatic activity” value (4° C., freshly made control without polyol = 100%, listed as 1% Inositol) of the same molecule?
**A.** Its value is 101%.

**Q.** What about the “% enzymatic activity” value (4° C., freshly made control without polyol = 100%, listed as 2% Inositol) of the same molecule?
**A.** Its value is 102%.

**Q.** And the “% enzymatic activity” value (4° C., freshly made control without polyol = 100%, listed as 4% Inositol)?
**A.** Its value is 107* %.

**Q.** What about the “% enzymatic activity” value (4° C., freshly made control without polyol = 100%, listed as 6% Inositol) of the same molecule?
**A.** Its value is 112* %.

**Q.** What about the “% enzymatic activity” value (4° C., freshly made control without polyol = 100%, listed as 8% Inositol) of the same molecule?
**A.** The value was 118* %.

**Q.** What about the “% enzymatic activity” value (4° C., freshly made control without polyol = 100%, listed as 10% Inositol) of the same molecule?
**A.** The value was 115* %.

**Q.** And the “% enzymatic activity” value (4° C., freshly made control without polyol = 100%, listed as 12% Inositol)?
**A.** Its value is 118* %.

**Q.** What about the “% enzymatic activity” value (4° C., freshly made control without polyol = 100%, listed as 14% Inositol) of the same molecule?
**A.** The value was 124* %.

**Q.** What about the “% enzymatic activity” value (42° C. for 3 hours, control without polyol = 100%, listed as 0.25% Inositol) of the same molecule?
**A.** The value was 96* %.

**Q.** And the “% enzymatic activity” value (42° C. for 3 hours, control without polyol = 100%, listed as 0.5% Inositol)?
**A.** Its value is 97* %.

**Q.** And the “% enzymatic activity” value (42° C. for 3 hours, control without polyol = 100%, listed as 1% Inositol)?
**A.** Its value is 99* %.

**Q.** And the “% enzymatic activity” value (42° C. for 3 hours, control without polyol = 100%, listed as 2% Inositol)?
**A.** Its value is 101* %.

**Q.** And the “% enzymatic activity” value (42° C. for 3 hours, control without polyol = 100%, listed as 4% Inositol)?
**A.** Its value is 106* %.

**Q.** And the “% enzymatic activity” value (42° C. for 3 hours, control without polyol = 100%, listed as 6% Inositol)?
**A.** Its value is 112* %.

**Q.** And the “% enzymatic activity” value (42° C. for 3 hours, control without polyol = 100%, listed as 8% Inositol)?
**A.** Its value is 126* %.

**Q.** What about the “% enzymatic activity” value (42° C. for 3 hours, control without polyol = 100%, listed as 10% Inositol) of the same molecule?
**A.** Its value is 113* %.

**Q.** What about the “% enzymatic activity” value (42° C. for 3 hours, control without polyol = 100%, listed as 12% Inositol) of the same molecule?
**A.** The value was 118* %.

**Q.** And the “% enzymatic activity” value (42° C. for 3 hours, control without polyol = 100%, listed as 14% Inositol)?
**A.** Its value is 115%.

**Q.** What about the “temperature stabilizing effect on DispersinB at elevated temperatures” value of the same molecule?
**A.** Its value is “exhibited temperature stabilizing effect”.

**Q.** And the “% enzymatic activity” value (52° C. for 3 hours, control without polyol = 100%, listed as 0.5% Inositol)?
**A.** The value was 1* %.

**Q.** And the “% enzymatic activity” value (52° C. for 3 hours, control without polyol = 100%, listed as 1% Inositol)?
**A.** The value was 3* %.

**Q.** What about the “% enzymatic activity” value (52° C. for 3 hours, control without polyol = 100%, listed as 2% Inositol) of the same molecule?
**A.** Its value is 8* %.

**Q.** And the “% enzymatic activity” value (52° C. for 3 hours, control without polyol = 100%, listed as 4% Inositol)?
**A.** The value was 19* %.

**Q.** What about the “% enzymatic activity” value (52° C. for 3 hours, control without polyol = 100%, listed as 6% Inositol) of the same molecule?
**A.** The value was 37* %.

**Q.** And the “% enzymatic activity” value (52° C. for 3 hours, control without polyol = 100%, listed as 8% Inositol)?
**A.** Its value is 66* %.

**Q.** What about the “% enzymatic activity” value (52° C. for 3 hours, control without polyol = 100%, listed as 10% Inositol) of the same molecule?
**A.** Its value is 77* %.

**Q.** What about the “% enzymatic activity” value (52° C. for 3 hours, control without polyol = 100%, listed as 12% Inositol) of the same molecule?
**A.** The value was 86* %.

**Q.** And the “% enzymatic activity” value (52° C. for 3 hours, control without polyol = 100%, listed as 14% Inositol)?
**A.** The value was 92* %.

**Q.** How did the “% enzymatic activity” value (4° C., freshly made control without polyol = 100%, listed as Sorbitol 1%) turn out when `OC[C@@H](O)[C@@H](O)[C@H](O)[C@@H](O)CO` [sorbitol, (2S,3R,4R,5R)-Hexane-1,2,3,4,5,6-hexol] was run?
**A.** The value was 112* %.

**Q.** What about the “% enzymatic activity” value (4° C., freshly made control without polyol = 100%, listed as Sorbitol 2.5%) of the same molecule?
**A.** The value was 107* %.

**Q.** What about the “% enzymatic activity” value (4° C., freshly made control without polyol = 100%, listed as Sorbitol 5%) of the same molecule?
**A.** The value was 105* %.

**Q.** What about the “% enzymatic activity” value (4° C., freshly made control without polyol = 100%, listed as Sorbitol 10%) of the same molecule?
**A.** The value was 107* %.

**Q.** What about the “% enzymatic activity” value (4° C., freshly made control without polyol = 100%, listed as Sorbitol 20%) of the same molecule?
**A.** The value was 110* %.

**Q.** What about the “% enzymatic activity” value (4° C., freshly made control without polyol = 100%, listed as Sorbitol 30%) of the same molecule?
**A.** The value was 113* %.

**Q.** And the “% enzymatic activity” value (42° C. for 3 hours, control without polyol = 100%, listed as Sorbitol 1%)?
**A.** Its value is 80%.

**Q.** And the “% enzymatic activity” value (42° C. for 3 hours, control without polyol = 100%, listed as Sorbitol 2.5%)?
**A.** Its value is 87%.

**Q.** What about the “% enzymatic activity” value (42° C. for 3 hours, control without polyol = 100%, listed as Sorbitol 5%) of the same molecule?
**A.** Its value is 89* %.

**Q.** And the “% enzymatic activity” value (42° C. for 3 hours, control without polyol = 100%, listed as Sorbitol 10%)?
**A.** Its value is 88* %.

**Q.** And the “% enzymatic activity” value (42° C. for 3 hours, control without polyol = 100%, listed as Sorbitol 20%)?
**A.** The value was 88* %.

**Q.** What about the “% enzymatic activity” value (42° C. for 3 hours, control without polyol = 100%, listed as Sorbitol 30%) of the same molecule?
**A.** The value was 101* %.

**Q.** And the “temperature stabilizing effect on DispersinB at elevated temperatures” value?
**A.** Its value is “exhibited temperature stabilizing effect”.

**Q.** What about the “% enzymatic activity” value (52° C. for 3 hours, control without polyol = 100%, listed as Sorbitol 1%) of the same molecule?
**A.** The value was 6* %.

**Q.** What about the “% enzymatic activity” value (52° C. for 3 hours, control without polyol = 100%, listed as Sorbitol 2.5%) of the same molecule?
**A.** Its value is 21* %.

**Q.** What about the “% enzymatic activity” value (52° C. for 3 hours, control without polyol = 100%, listed as Sorbitol 5%) of the same molecule?
**A.** The value was 46* %.

**Q.** And the “% enzymatic activity” value (52° C. for 3 hours, control without polyol = 100%, listed as Sorbitol 10%)?
**A.** Its value is 82* %.

**Q.** What about the “% enzymatic activity” value (52° C. for 3 hours, control without polyol = 100%, listed as Sorbitol 20%) of the same molecule?
**A.** Its value is 94* %.

**Q.** And the “% enzymatic activity” value (52° C. for 3 hours, control without polyol = 100%, listed as Sorbitol 30%)?
**A.** The value was 97* %.

**Q.** And the “% enzymatic activity” value (62° C. for 3 hours, control without polyol = 100%, listed as Sorbitol 5%)?
**A.** The value was 1* %.

**Q.** What about the “% enzymatic activity” value (62° C. for 3 hours, control without polyol = 100%, listed as Sorbitol 10%) of the same molecule?
**A.** Its value is 3* %.

**Q.** What about the “% enzymatic activity” value (62° C. for 3 hours, control without polyol = 100%, listed as Sorbitol 20%) of the same molecule?
**A.** The value was 4* %.

**Q.** And the “% enzymatic activity” value (62° C. for 3 hours, control without polyol = 100%, listed as Sorbitol 30%)?
**A.** The value was 46* %.
